{"source": "paper PMC8071358", "about": "“Targeting of the Essential acpP, ftsZ, and rne Genes in Carbapenem-Resistant Acinetobacter baumannii by Antisense PNA Precision Antibacterials” (Biomedicines, 2021)", "key": {"HepG2 hepatocytes": {"test_system": "HepG2 hepatocytes", "test": "HepG2 cell toxicity (CellTiter-Glo, ATP)", "assay_type": "cell-based", "settings": "HepG2, 2–4 µM, ATP level", "procedure": "The cell toxicity of selected BPP-PNAs was determined using HepG2 hepatocytes grown in DMEM (low glucose) medium supplemented with 100 U/mL penicillin, 100 µg/mL streptomycin, 1% glutamax, and 10% fetal bovine serum (FBS) (Thermofisher Scientific, Roskilde, Denmark), at 37 °C with 5% CO2. Then, 7000–10,000 cells were seeded in each well of a 96-well plate. After 48 h, the BPP-PNAs were added (six replicates for each concentration), followed by overnight incubation. Total amount of adenosine triphosphate (ATP) was used as a measure of cell viability, according to the CellTiter-Glo luminescent cell viability assay (Promega, Madison, WI, USA) kit. BPP-PNAs concentrations ranged from 2.5 to 20 µM. Potassium dichromate (100 µM) was used as a positive control."}, "A. baumannii SSI1104": {"test_system": "A. baumannii SSI1104", "test": "BPP-PNA MIC, broth microdilution", "assay_type": "cell-based, Acinetobacter baumannii", "settings": "37 °C, 18 h", "how_it_was_run": "(§1)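 Non-cation-adjusted MHB, inoculum ~5 × 10^5 CFU/mL; BPP-PNA 2-fold series prepared at 16–0.5 µM before addition to wells. 37 °C, 18 h, linear shaking, OD 595 nm every 20 min. ≥2 biological × 2 technical replicates.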"}, "CRAB strain AC46": {"test_system": "CRAB strain AC46", "test": "BPP-PNA MIC, broth microdilution", "assay_type": "cell-based, Acinetobacter baumannii", "settings": "37 °C, 18 h"}, "A. baumannii ATCC 19606 [1]": {"test_system": "A. baumannii ATCC 19606", "test": "BPP-PNA MIC, broth microdilution", "assay_type": "cell-based, Acinetobacter baumannii", "settings": "37 °C, 18 h", "how_it_was_run": "as §1"}, "CRAB strain AC2": {"test_system": "CRAB strain AC2", "test": "BPP-PNA MIC, broth microdilution", "assay_type": "cell-based, Acinetobacter baumannii", "settings": "37 °C, 18 h", "how_it_was_run": "as §1"}, "CRAB strain AC44": {"test_system": "CRAB strain AC44", "test": "BPP-PNA MIC, broth microdilution", "assay_type": "cell-based, Acinetobacter baumannii", "settings": "37 °C, 18 h", "how_it_was_run": "as §1"}, "CRAB strains": {"test_system": "CRAB strains", "test": "BPP-PNA MIC/MBC summarised over the panel of strains", "assay_type": "cell-based, Acinetobacter baumannii", "settings": "for bactericidal concentration relative to MIC: CRAB strains; for MIC (complete growth inhibition) over the CRAB strains tested: several A. baumannii strains", "procedure": "(§2) MIC values were determined by broth microdilution according to standard protocols with a few modifications. An overnight bacterial cell culture was diluted to approximately 5 × 10^5 CFU/mL in non-cation-adjusted Muller Hinton Broth (MHB). Then, 180 µL bacterial solutions were dispensed into a low-bind 96-well plate (Thermo-Scientific, Roskilde, Denmark) along with 20 µL of BPP-PNA compound (BPP-PNA was serially diluted 2-fold from 16 to 0.5 µM in a 96-well plate). The plate was incubated in a Tecan Genios plate reader (GMI, Minnesota, Ramsey, USA) at 37 °C for 18 h with linear shaking, OD was measured every 20 min at 595 nm. […] The minimum bactericidal concentration (MBC) values were determined by plating 10 µL samples from the wells with no visible turbidity onto Mueller–Hinton agar plates. The MBC is determined the lowest concentration of BPP-PNA that reduces the viability of the initial bacterial inoculum by ≥99.9% (3-log reduction in CFU/mL). A minimum of two independent experiments (biological replicates) of the assay were conducted, and two technical replicates were used in each experiment for each bacterium, compound, and concentration."}, "P. aeruginosa (PAO1)": {"test_system": "P. aeruginosa (PAO1)", "test": "BPP-PNA MIC, broth microdilution", "assay_type": "cell-based, Pseudomonas aeruginosa", "settings": "non-target species; MHB without cation (Oxoid)", "procedure": "as §2"}, "A. baumannii ATCC 19606 [2]": {"test_system": "A. baumannii ATCC 19606", "test": "Time-kill assay", "assay_type": "cell-based, Acinetobacter baumannii", "settings": "~10^6 CFU/mL, 37 °C, MHB without cation (Sigma)", "procedure": "Bacterial cultures were harvested at 0, 90 min, 3 and 6 h. The content of each well was added to 0.9 mL of MHB and centrifuged at 9300× g for 5 min. Supernatants were removed and the cell pellets were suspended in fresh pre-warmed MHB (100 μL). Tenfold serial dilution were prepared, and 10 μL aliquots were plated on Mueller–Hinton agar and incubated overnight at 37 °C to determine the CFU/mL [17]."}, "A. baumannii ATCC 19606 [3]": {"test_system": "A. baumannii ATCC 19606", "test": "Envelope disruption, Sytox green uptake", "assay_type": "cell-based, Acinetobacter baumannii", "settings": "fluorescence over 90 min, 37 °C", "procedure": "A culture of A. baumannii ATCC 19606 was grown in MHB (195 rpm at 37 °C), until OD595 = 0.4. Then, bacterial cells were pelleted by centrifugation, washed with 0.9% NaCl, and resuspended in MHB at an OD595 = 0.1. Sytox green dye (Invitrogen) was added to the bacterial culture at a concentration of 2 µM followed by incubation for 5 min at 37 °C, followed by addition of the desired amount of BPP–PNA in a 96-well plate format. Fluorescence intensity (λex = 480 nm, λem = 520 nm) was measured every 5 min for 90 min at 37 °C with continuous shaking."}, "E. coli K-12 MG1655": {"test_system": "E. coli K-12 MG1655", "test": "BPP-PNA MIC, broth microdilution", "assay_type": "cell-based, Escherichia coli", "settings": "non-target species; MHB without cation (Oxoid)", "procedure": "as §2"}, "[4]": {"settings": "Oxoid MHB medium, cation adjusted"}, "[5]": {"settings": "Sigma MHB medium without cation"}}}
{"substance": "H-(KFF)3K-eg1-GAGGCCATGAC-NH2 (antisense; N-terminal (KFF)3K-eg1 peptide, C-terminal amide, backbone not given here, further chemistry not given here) [PNA 5612, anti-ftsZ peptide-PNA conjugate, match, −3 to +8]", "values": [{"measurement": "reduction in cell viability at MIC50 concentration", "setting": "HepG2 hepatocytes", "value": "no reduction in viability"}, {"measurement": "MIC, SSI 1104", "setting": "A. baumannii SSI1104; MHB without cation (Oxoid)", "value": 4, "unit": "µM"}, {"measurement": "MIC, AC46", "setting": "CRAB strain AC46; MHB without cation (Oxoid)", "value": 8, "unit": "µM"}, {"measurement": "MIC, ATCC 19606", "setting": "A. baumannii ATCC 19606 [1]; MHB without cation (Oxoid)", "value": 4, "unit": "µM"}, {"measurement": "MIC, AC2", "setting": "CRAB strain AC2; MHB without cation (Oxoid)", "value": 2, "unit": "µM"}, {"measurement": "MIC, AC44", "setting": "CRAB strain AC44; MHB without cation (Oxoid)", "value": 8, "unit": "µM"}, {"measurement": "concentration with bactericidal activity against carbapenem-resistant A. baumannii", "setting": "CRAB strains", "value": 4, "unit": "µM"}, {"measurement": "MIC range against 12 multidrug resistant clinical isolates", "setting": "CRAB strains; 12 CRAB clinical isolates (Table 3)", "value": "2 to 8", "unit": "µM"}, {"measurement": "match/mismatch ratio of MIC", "setting": "CRAB strains; 12 multidrug resistant clinical isolates, 5612 vs 5615", "value": "2–8 fold"}, {"measurement": "bactericidal concentration relative to MIC", "setting": "CRAB strains", "value": "1–2 × MIC"}, {"measurement": "MIC50", "setting": "CRAB strains; over the CRAB and ATCC 19606 strains of Table 3, MHB without cation (Oxoid)", "value": 4, "unit": "µM"}, {"measurement": "MIC (complete growth inhibition) over the CRAB strains tested", "setting": "CRAB strains", "value": "2 to 8", "unit": "µM"}, {"measurement": "MIC of match PNA lower than mismatch control (mismatch discrimination)", "setting": "CRAB strains; strains of Table 2 (5612 vs 5615) or Table 4 (5656 vs 5822)", "value": "2–4 fold"}, {"measurement": "MIC, P. aeruginosa (PAO1)", "setting": "P. aeruginosa (PAO1)", "value": ">16", "unit": "µM"}, {"measurement": "CFU reduction in time-kill", "setting": "A. baumannii ATCC 19606 [2]; 4 μM, after 3 h", "value": "more than three order of magnitude CFU reduction"}, {"measurement": "membrane disruption activity (Sytox uptake)", "setting": "A. baumannii ATCC 19606 [3]; 8 µM", "value": "only a minimal effect"}, {"measurement": "membrane disruption activity (Sytox uptake)", "setting": "A. baumannii ATCC 19606 [3]; 2× MIC concentration (4 µM)", "value": "no indication of membrane disruption activity"}, {"measurement": "MIC, E. coli K-12 MG1655", "setting": "E. coli K-12 MG1655", "value": ">16", "unit": "µM"}]}
{"substance": "H-(KFF)3K-eg1-TGATTTGCCAC-NH2 (antisense; N-terminal (KFF)3K-eg1 peptide, C-terminal amide, backbone not given here, further chemistry not given here) [PNA 5639, anti-acpP peptide-PNA conjugate, match, +1 to +11]", "values": [{"measurement": "reduction in cell viability at MIC50 concentration", "setting": "HepG2 hepatocytes", "value": "no reduction in viability"}, {"measurement": "MIC, SSI 1104", "setting": "A. baumannii SSI1104; MHB without cation (Oxoid)", "value": 2, "unit": "µM"}, {"measurement": "MIC, SSI 1104", "setting": "A. baumannii SSI1104; [4]", "value": 4, "unit": "µM"}, {"measurement": "MIC, SSI 1104", "setting": "A. baumannii SSI1104; [5]", "value": 2, "unit": "µM"}, {"measurement": "MIC, AC46", "setting": "CRAB strain AC46; [4]", "value": 4, "unit": "µM"}, {"measurement": "MIC, AC46", "setting": "CRAB strain AC46; [5]", "value": 1, "unit": "µM"}, {"measurement": "MIC, ATCC 19606", "setting": "A. baumannii ATCC 19606 [1]; MHB without cation (Oxoid)", "value": 2, "unit": "µM"}, {"measurement": "MIC, ATCC 19606", "setting": "A. baumannii ATCC 19606 [1]; [4]", "value": 4, "unit": "µM"}, {"measurement": "MIC, ATCC 19606", "setting": "A. baumannii ATCC 19606 [1]; Sigma MHB medium without cation, ~5 × 10^5 CFU/mL, OD595 < 0.1", "value": 2, "unit": "µM"}, {"measurement": "MIC, AC2", "setting": "CRAB strain AC2; [4]", "value": 4, "unit": "µM"}, {"measurement": "MIC, AC2", "setting": "CRAB strain AC2; [5]", "value": "1 to 2", "unit": "µM"}, {"measurement": "MIC, AC44", "setting": "CRAB strain AC44; [4]", "value": 4, "unit": "µM"}, {"measurement": "MIC, AC44", "setting": "CRAB strain AC44; [5]", "value": 1, "unit": "µM"}, {"measurement": "concentration with bactericidal activity against carbapenem-resistant A. baumannii", "setting": "CRAB strains", "value": 4, "unit": "µM"}, {"measurement": "bactericidal concentration relative to MIC", "setting": "CRAB strains", "value": "1–2 × MIC"}, {"measurement": "decrease of potency in cation adjusted MHB", "setting": "CRAB strains; cation adjusted MHB against MHB without cation", "value": "1–4 fold"}, {"measurement": "MIC (complete growth inhibition) over the CRAB strains tested", "setting": "CRAB strains", "value": "1 to 2", "unit": "µM"}, {"measurement": "MIC, P. aeruginosa (PAO1)", "setting": "P. aeruginosa (PAO1)", "value": ">16", "unit": "µM"}, {"measurement": "CFU reduction in time-kill", "setting": "A. baumannii ATCC 19606 [2]; 4 or 8 μM, after 3 h treatment", "value": 4, "unit": "log"}, {"measurement": "membrane disruption activity (Sytox uptake)", "setting": "A. baumannii ATCC 19606 [3]; 8 µM", "value": "only a minimal effect"}, {"measurement": "membrane disruption activity (Sytox uptake)", "setting": "A. baumannii ATCC 19606 [3]; 2× MIC concentration (4 µM)", "value": "no indication of membrane disruption activity"}, {"measurement": "MIC, E. coli K-12 MG1655", "setting": "E. coli K-12 MG1655", "value": ">16", "unit": "µM"}]}
